Measurements reported in patent US12382888B2, “Compositions and methods for modulating immunity in plants” (Boyce Thompson Institute for Plant Research, Inc., priority 2013, dated 2025).
Entries after “also recorded” stand apart in the source; their conditions may differ.

Tested on: Turnip Crinkle Virus (TCV)
Test: Resistance of Arabidopsis to Turnip Crinkle Virus (coat protein immunoblot, symptoms)
Type: in vivo
Conditions: root pretreatment 1 μM

CC1O[C@@H](O[C@@H](C)CCCCCCCCC(=O)O)C(O)C[C@H]1O (stereo in doubt) [ascr #18, (10R)-(3′R,5′R-dihydroxy-6′S-methyl-(2H)-tetrahydropyran-2-yloxy)-undecanoic Acid]
resistance to virulent TCV: dramatically enhanced resistance; also recorded: enhanced basal resistance | disease symptoms (chlorosis, lesions, suppression of inflorescent development) (6 dpi): greatly reduced | systemic spread of the virus (distal leaves): largely abolished | viral replication (amount of viral coat protein) (inoculated and distal leaves, immune blot): greatly reduced
